ChEMBL document CHEMBL1124217, “2,4-Diamino-5-benzylpyrimidines and analogues as antibacterial agents. 9. Lipophilic trimethoprim analogues as antigonococcal agents” (J Med Chem, 1988)

How the values were obtained:
[1] = system: Rattus norvegicus; assay: Conc in muscle of male rat 2 hr after administration of dose; format: functional, organism-based; conditions: Muscle tissue
[2] = system: Rattus norvegicus; assay: Conc in ovary of female rat 1.5h after administration of dose; format: functional, organism-based; conditions: Female gonad
[3] = system: Rattus norvegicus; assay: Conc in serum of male rat 2 hr after administration of dose; format: functional, organism-based
[4] = system: Rattus norvegicus; assay: Conc in serum of female rat 4 hr after administration of dose; format: functional, organism-based
[5] = system: Rattus norvegicus; assay: Conc in testes of male rat 0.25 hr after administration of dose; format: functional, organism-based; conditions: Testis
[6] = system: Rattus norvegicus; assay: Conc in serum of male rat 6 hr after administration of dose; format: functional, organism-based
[7] = system: Rattus norvegicus; assay: Conc in liver of male rat after 0.25 hr administration of dose; format: functional, organism-based
[8] = system: Rattus norvegicus; assay: Conc in intestine of male rat 0.50 hr after administration of dose; format: functional, organism-based
[9] = system: Rattus norvegicus; assay: Conc in muscle of male rat 0.75h after administration of dose; format: functional, organism-based; conditions: Muscle tissue
[10] = system: Rattus norvegicus; assay: Conc in kidney of male rat 24 hr after administration of dose; format: functional, organism-based
[11] = system: Rattus norvegicus; assay: Conc in kidney of male rat 10h after administration of dose; format: functional, organism-based
[12] = system: Rattus norvegicus; assay: Conc in serum of female rat 2 hr after administration of dose; format: functional, organism-based
[13] = system: Rattus norvegicus; assay: Conc in intestine of male rat 24 hr after administration of dose; format: functional, organism-based
[14] = system: Proteus vulgaris; assay: Inhibition of growth of Proteus vulgaris (CN329) measured as MIC compound/MIC Trimethoprim; format: functional
[15] = system: Rattus norvegicus; assay: Conc in lung of male rat 2 hr after administration of dose; format: functional, organism-based
[16] = system: Rattus norvegicus; assay: Conc in serum of female rat 10h after administration of dose; format: functional, organism-based
[17] = system: Rattus norvegicus; assay: Conc in testes of male rat 0.50 hr after administration of dose; format: functional, organism-based; conditions: Testis
[18] = system: Rattus norvegicus; assay: Conc in muscle of male rat 3h after administration of dose; format: functional, organism-based; conditions: Muscle tissue
[19] = system: Rattus norvegicus; assay: Conc in brain of male rat 0.75h after administration of dose; format: functional, organism-based
[20] = system: Klebsiella aerogenes; assay: Inhibition of growth of Enterobacter aerogenes (2200/186) measured as MIC(compound/MIC Trimethoprim; format: functional
[21] = system: Rattus norvegicus; assay: Conc in brain of male rat 4 hr after administration of dose; format: functional, organism-based
[22] = biological target: T1, Dihydrofolate reductase (Rattus norvegicus, UniProt Q920D2); assay: Inhibition of Rat liver Dihydrofolate reductase(DHFR); conditions: read-out: I50
T1 sequence (Q920D2 whole entry): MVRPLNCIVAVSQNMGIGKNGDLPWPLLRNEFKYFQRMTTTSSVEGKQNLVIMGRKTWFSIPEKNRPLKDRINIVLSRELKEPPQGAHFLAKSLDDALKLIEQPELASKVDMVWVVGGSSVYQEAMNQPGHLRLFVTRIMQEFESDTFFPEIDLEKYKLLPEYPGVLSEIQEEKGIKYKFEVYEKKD

[23] = system: Rattus norvegicus; assay: Conc in stomach of male rat 1.5h after administration of dose; format: functional, organism-based
[24] = system: Rattus norvegicus; assay: Conc in serum of female rat 24 hr after administration of dose; format: functional, organism-based
[25] = system: Rattus norvegicus; assay: Conc in testes of male rat 4 hr after administration of dose; format: functional, organism-based; conditions: Testis
[26] = system: Rattus norvegicus; assay: Conc in testes of male rat 10h after administration of dose; format: functional, organism-based; conditions: Testis
[27] = system: Rattus norvegicus; assay: Conc in stomach of male rat 0.75h after administration of dose; format: functional, organism-based
[28] = system: Rattus norvegicus; assay: Conc in stomach of male rat 10h after administration of dose; format: functional, organism-based
[29] = system: Rattus norvegicus; assay: Conc in serum of male rat 4 hr after administration of dose; format: functional, organism-based
[30] = system: Rattus norvegicus; assay: Conc in brain of male rat 6 hr after administration of dose; format: functional, organism-based
[31] = system: Rattus norvegicus; assay: Conc in intestine of male rat 6 hr after administration of dose; format: functional, organism-based
[32] = system: Rattus norvegicus; assay: Conc in kidney of male rat 6 hr after administration of dose; format: functional, organism-based
[33] = system: Rattus norvegicus; assay: Conc in stomach of male rat 3h after administration of dose; format: functional, organism-based
[34] = system: Rattus norvegicus; assay: Conc in serum of female rat 3h after administration of dose; format: functional, organism-based
[35] = system: Rattus norvegicus; assay: Conc in ovary of female rat 2 hr after administration of dose; format: functional, organism-based; conditions: Female gonad
[36] = system: Rattus norvegicus; assay: Conc in lung of male rat 0.50 hr after administration of dose; format: functional, organism-based
[37] = system: Rattus norvegicus; assay: Conc in brain of male rat 1 hr after administration of dose; format: functional, organism-based
[38] = system: Rattus norvegicus; assay: Conc in ovary of female rat 6 hr after administration of dose; format: functional, organism-based; conditions: Female gonad
[39] = system: Rattus norvegicus; assay: Conc in muscle of male rat 10h after administration of dose; format: functional, organism-based; conditions: Muscle tissue
[40] = system: Rattus norvegicus; assay: Conc in serum of female rat 0.25 hr after administration of dose; format: functional, organism-based
[41] = system: Rattus norvegicus; assay: Conc in serum of male rat 1.5h after administration of dose; format: functional, organism-based
[42] = system: Escherichia coli; assay: Inhibition of growth of Escherichia coli (CN314) measured as MIC compound/MIC Trimethoprim; format: functional
[43] = system: Rattus norvegicus; assay: Conc in ovary of female rat 24 hr after administration of dose; format: functional, organism-based; conditions: Female gonad
[44] = system: Rattus norvegicus; assay: Conc in serum of female rat 0.50 hr after administration of dose; format: functional, organism-based
[45] = system: Rattus norvegicus; assay: Conc in lung of male rat 4 hr after administration of dose; format: functional, organism-based
[46] = system: Rattus norvegicus; assay: Conc in liver of male rat 0.50 hr after administration of dose; format: functional, organism-based
[47] = system: Rattus norvegicus; assay: Conc in brain of male rat 24 hr after administration of dose; format: functional, organism-based
[48] = system: Rattus norvegicus; assay: Conc in lung of male rat 1.5h after administration of dose; format: functional, organism-based
[49] = system: Rattus norvegicus; assay: Conc in muscle of male rat 4 hr after administration of dose; format: functional, organism-based; conditions: Muscle tissue
[50] = system: Rattus norvegicus; assay: Conc in testes of male rat 24 hr after administration of dose; format: functional, organism-based; conditions: Testis
[51] = system: Rattus norvegicus; assay: Conc in brain of male rat 0.50 hr after administration of dose; format: functional, organism-based
[52] = system: Rattus norvegicus; assay: Conc in lung of male rat 24 hr after administration of dose; format: functional, organism-based
[53] = system: Rattus norvegicus; assay: Conc in serum of male rat 0.75h after administration of dose; format: functional, organism-based
[54] = system: Rattus norvegicus; assay: Conc in lung of male rat 0.75h after administration of dose; format: functional, organism-based
[55] = system: Rattus norvegicus; assay: Conc in ovary of female rat 0.50 hr after administration of dose; format: functional, organism-based; conditions: Female gonad
[56] = system: Rattus norvegicus; assay: Conc in intestine of male rat 0.75h after administration of dose; format: functional, organism-based
[57] = system: Rattus norvegicus; assay: Conc in stomach of male rat 0.25 hr after administration of dose; format: functional, organism-based
[58] = system: Rattus norvegicus; assay: Conc in liver of male rat after 0.75h administration of dose; format: functional, organism-based
[59] = system: Rattus norvegicus; assay: Conc in stomach of male rat 24 hr after administration of dose; format: functional, organism-based
[60] = system: Rattus norvegicus; assay: Conc in kidney of male rat 1.5h after administration of dose; format: functional, organism-based
[61] = system: Rattus norvegicus; assay: Conc in intestine of male rat 2 hr after administration of dose; format: functional, organism-based
[62] = system: Rattus norvegicus; assay: Conc in serum of male rat 1 hr after administration of dose; format: functional, organism-based
[63] = system: Rattus norvegicus; assay: Conc in lung of male rat 1 hr after administration of dose; format: functional, organism-based
[64] = system: Rattus norvegicus; assay: Conc in serum of male rat 0.50 hr after administration of dose; format: functional, organism-based
[65] = system: Rattus norvegicus; assay: Conc in ovary of female rat 4 hr after administration of dose; format: functional, organism-based; conditions: Female gonad
[66] = system: Rattus norvegicus; assay: Conc in ovary of female rat 3h after administration of dose; format: functional, organism-based; conditions: Female gonad
[67] = system: Rattus norvegicus; assay: Conc in lung of male rat 6 hr after administration of dose; format: functional, organism-based
[68] = system: Rattus norvegicus; assay: Conc in kidney of male rat 4 hr after administration of dose; format: functional, organism-based
[69] = system: Rattus norvegicus; assay: Conc in intestine of male rat 1.5h after administration of dose; format: functional, organism-based
[70] = system: Rattus norvegicus; assay: Conc in testes of male 1 hr rat after administration of dose; format: functional, organism-based; conditions: Testis

## CC(C)c1cc(Cc2cnc(N)nc2N)cc(C(C)C)c1O
[1]
  Concentration: 1.4 µg/g
[2]
  Concentration: 4.5 µg/g
[3]
  Concentration: 0.49 µg/g
[4]
  Concentration: 0.53 µg/g
[5]
  Concentration: 1.34 µg/g
[6]
  Concentration: 0.27 µg/g
[7]
  Concentration: 17.4 µg/g
[8]
  Concentration: 114 µg/g
[9]
  Concentration: 2.31 µg/g
[10]
  Concentration: 0.5 µg/g
[11]
  Concentration: 1.13 µg/g
[12]
  Concentration: 0.68 µg/g
[13]
  Concentration: 0.85 µg/g
[14]
  MIC ratio: 300
[15]
  Concentration: 4.98 µg/g
[16]
  Concentration: 0.16 µg/g
[17]
  Concentration: 1.07 µg/g
[18]
  Concentration: 1.38 µg/g
[19]
  Concentration: 1.01 µg/g
[20]
  MIC ratio: 100
[21]
  Concentration: 0.19 µg/g
[22]
  IC50: 7.2 µM
[23]
  Concentration: 97.1 µg/g
[24]
  Concentration: 0.14 µg/g
[25]
  Concentration: 1.01 µg/g
[26]
  Concentration: 0.66 µg/g
[27]
  Concentration: 319 µg/g
[28]
  Concentration: 2 µg/g
[29]
  Concentration: 0.42 µg/g
[30]
  Concentration: 0.05 µg/g
[31]
  Concentration: 4.13 µg/g
[32]
  Concentration: 1.55 µg/g
[33]
  Concentration: 8.92 µg/g
[34]
  Concentration: 0.61 µg/g
[35]
  Concentration: 1.93 µg/g
[36]
  Concentration: 8.31 µg/g
[37]
  Concentration: 0.91 µg/g
[38]
  Concentration: 0.71 µg/g
[39]
  Concentration: 0.13 µg/g
[40]
  Concentration: 0.49 µg/g
[41]
  Concentration: 0.8 µg/g
[42]
  MIC ratio: 300
[43]
  Concentration: 0.08 µg/g
[44]
  Concentration: 0.9 µg/g
[45]
  Concentration: 2.3 µg/g
[46]
  Concentration: 29.9 µg/g
[47]
  Concentration: 0.004 µg/g
[48]
  Concentration: 7.17 µg/g
[49]
  Concentration: 0.67 µg/g
[50]
  Concentration: 0.15 µg/g
[51]
  Concentration: 0.58 µg/g
[52]
  Concentration: 0.1 µg/g
[53]
  Concentration: 1.13 µg/g
[54]
  Concentration: 11.3 µg/g
[55]
  Concentration: 4.06 µg/g
[56]
  Concentration: 112 µg/g
[57]
  Concentration: 387 µg/g
[58]
  Concentration: 23.1 µg/g
[59]
  Concentration: 1.49 µg/g
[60]
  Concentration: 6.74 µg/g
[61]
  Concentration: 11.6 µg/g
[62]
  Concentration: 0.92 µg/g
[63]
  Concentration: 11.9 µg/g
[64]
  Concentration: 1.12 µg/g
[65]
  Concentration: 1.55 µg/g
[66]
  Concentration: 2.06 µg/g
[67]
  Concentration: 0.52 µg/g
[68]
  Concentration: 2.07 µg/g
[69]
  Concentration: 14.9 µg/g
[70]
  Concentration: 1.32 µg/g
